Source: patent US7560591B2, “Benzamidine derivatives having anti-inflammatory and immunosuppressive activity” (Rotta Research Laboratorium S.p.A., priority 2001, dated 2009)
Like-named read-outs stand apart in the source and are kept apart here.

Key:
formation of PGE2 = assay: Inhibition of PGE2 formation in rabbit joint chondrocytes stimulated by IL-1β (RIA); assay type: cell-based; details: Oryctolagus cuniculus, Chondrocyte, IL-1β 1 ng/ml, 48 hours
Experimental: (§1) a) The activity in inhibiting the formation of NO, measured as NO2^− (nitrites), PGE2, and neutral protease, was investigated in vitro on culture broths of rabbit joint chondrocytes stimulated by cytokine IL-1β (1 ng/ml) for 48 hours. For the preparation of the chondrocytes, the method described by Berenbaum et al [FEBS Letters 340, 51-55 (1994)] was followed. Briefly, fragments of cartilage removed under sterile conditions from the heads of rabbit shoulder, hip and knee joints were chopped finely and digested at 37° C. by hyaluronidase, trypsin and collagenase solutions, giving rise, after filtration on sterile gauze and centrifuging at 600×g and suitable dilution with 10% DMEM-FCS, to a concentration of approximately 1×10^5 cells per well. The cells were kept in these conditions until confluence (about 15 days), the broth being changed every 3 days. At this point, the products under test, dissolved in the medium, were added to each test sample and, after 20 minutes, 350 μl IL-1β was added in order to have a final concentration of 1 ng/ml. The duration of the stimulation was 48 hours at 37° C. (incubation air-CO2 7%). Measurement of the nitrites, as described by Green et al. [Anal. Biochem. 126, 131-138 (1982)], and of the PGE2s by RIA measurement, was then performed on the cell supernatant fluid. The measurement of the neutral proteases was performed in the cell supernatant fluid containing the p-aminophenyl mercury acetate (APMA) activator with the use of azocoll as the substrate and with incubation at 37° C. for 17 h as described by Chavira et al. [Anal. Biochem. 136, 446-450 (1984)]. In order to evaluate the direct inhibitory effect of the compounds under test on the hydrolytic activity of the cell supernatant fluid, they were added to the supernatant fluid containing the proteases induced by IL-1β and already activated by AMPA.
(§2) The results obtained are shown in Table 3, in which the IC50, that is, the concentration (micromolar) of antagonist which can inhibit the formation of nitrites, PGE2s, and neutral proteases, respectively, by 50% relative to the control group, that is, to the cells stimulated with IL-1β but without the addition of antagonists, is given for some of the compounds of the invention already given by way of example in Table 2.

[1] = test system: formation of NO, measured as NO2− (nitrites); assay: Inhibition of NO (nitrite) formation in rabbit joint chondrocytes stimulated by IL-1β; assay type: cell-based; details: Oryctolagus cuniculus, Chondrocyte, IL-1β 1 ng/ml, 48 hours, NO determined as nitrites
Experimental: as §1, §2

[2] = test system: extravasation in the ears of mice; assay: Extravasation (Evans Blu) induced by phlogogenic agents in the ears of mice; assay type: in vivo; details: for % inhibition of extravasation, PAF: 1 h; for % inhibition of extravasation, Zymosan: 2 h; for % inhibition of extravasation, Arachidonic Acid / % inhibition of extravasation, Bradykinin / % inhibition of extravasation, Histamine: 30 min; for ED50: OS, mouse ear
Experimental: b) Some of the compounds of the invention, such as compounds I-4, I-11 and I-31, were evaluated in vivo in a series of experimental extravasation models in which 5 μl of the preselected phlogogenic agent dissolved in physiological solution was injected intradermally into the ears of mice as described by Erdo et al., with slight modifications [Agents and Actions 39, 137-142 (1993)].
The products under test were administered orally 1 hour before the challenge and, 30 minutes before the challenge, the dye Evans Blu was injected intravenously in a dose of 100 mg/kg. The animals were killed at a time predetermined according to the test, 30 min.—2 hours after the challenge. The extravasation was evaluated by determining the quantity of dye present in the ear, extracted after homogenisation of the tissue in 2 ml of formamide and incubation at 50° C. for 2 hours. After centrifuging, the amount of dye was determined by measuring the absorption at 620 nm. The maximum % effect (% MPE) was calculated by the following formula:
[formula] in which EV is the mean absorption observed in the group of animals treated solely with the phlogogenic agent, ED is the group treated with the phlogogenic agent and the drug, and EB is the base value, that is, the value for the animals injected with physiological solution alone.
The phlogogenic agents used were:
Arachidonic acid (dissolved in EtOH); (1 mg/mouse; killed+30 min); histamine (3 nmoli/mouse; killed+30 min); PAF (30 pmoli/mouse; killed+60 min); Zymosan (10 μg/mouse; killed+120 min); bradykinin (0.6 nmoli/mouse; killed+30 min).

For `CCCCCNC(=S)Nc1ccc(NC(C)=N)cc1` [Compound I-4, N-[4-(N-acetamidine)phenyl]-N′-pentyl Thiourea], the IC50 (formation of PGE2) was 3.3 µM, the IC50 [1] was 6.6 µM and the “% inhibition of extravasation, PAF” value ([2]; 2.5 mg/kg OS, PAF) was 41.9%. The “% inhibition of extravasation, Zymosan” value ([2]; 2.5 mg/kg OS, Zymosan) was 40.0%, the “% inhibition of extravasation, Arachidonic Acid” value (shortened to “% inhibition … Arachidonic Acid”) ([2]; 5 mg/kg OS) was 37.8% and the “% inhibition of extravasation, Bradykinin” value (“% inhibition … Bradykinin” below) ([2]; 5 mg/kg OS) was 30.1%. For the same compound, the “% inhibition of extravasation, Histamine” value ([2]; 5 mg/kg OS) was 17.8%, the “% inhibition of extravasation, PAF” value ([2]; 5 mg/kg OS, PAF) was 49.9% and the “% inhibition of extravasation, Zymosan” value ([2]; 5 mg/kg OS, Zymosan) was 66.6%. The “% inhibition … Arachidonic Acid” value ([2]; 10 mg/kg OS) was 40.0%, the “% inhibition … Bradykinin” value ([2]; 10 mg/kg OS) was 30.7% and the “% inhibition of extravasation, Histamine” value ([2]; 10 mg/kg OS) was 27.7%. For the same compound, the “% inhibition of extravasation, PAF” value ([2]; 10 mg/kg OS, PAF) was 55.1%, the “% inhibition of extravasation, Zymosan” value ([2]; 10 mg/kg OS, Zymosan) was 65.8% and the “% inhibition … Arachidonic Acid” value ([2]; 20 mg/kg OS) was 52.6%. The “% inhibition … Bradykinin” value ([2]; 20 mg/kg OS) was 49.1%, the “% inhibition of extravasation, Histamine” value ([2]; 20 mg/kg OS) was 38.8% and the “% inhibition of extravasation, PAF” value ([2]; 20 mg/kg OS, PAF) was 56.4%. For the same compound, the “% inhibition of extravasation, Zymosan” value ([2]; 20 mg/kg OS, Zymosan) was 83.9%, the “% inhibition … Arachidonic Acid” value ([2]; 40 mg/kg OS) was 55.5% and the “% inhibition … Bradykinin” value ([2]; 40 mg/kg OS) was 51.3%. The “% inhibition of extravasation, Histamine” value ([2]; 40 mg/kg OS) was 52.5%, the “% inhibition of extravasation, PAF” value ([2]; 40 mg/kg OS, PAF) was 66.2% and the “% inhibition of extravasation, Zymosan” value ([2]; 40 mg/kg OS, Zymosan) was 89.8%. The “% inhibition of extravasation, Zymosan” value ([2]; 80 mg/kg OS, Zymosan) was 95.5%, the inhibition at 5 mg/kg ([2]; Mus musculus, 5 mg/kg, models other than Zymosan, read-out: mean inhibitory effect in the other extravasation models) was ~35% and the ED50 ([2]; PAF, read-out: ED50, extravasation induced by PAF) was 6.1 mg/kg. It also gave an ED50 ([2]; Zymosan, read-out: ED50, extravasation induced by Zymosan) of 3.1 mg/kg, an ED50 ([2]; arachidonic acid, read-out: ED50, extravasation induced by AA (arachidonic acid)) of 20.5 mg/kg and an ED50 ([2]; bradykinin, read-out: ED50, extravasation induced by Bradykinin) of 32.6 mg/kg. It also gave an ED50 ([2]; histamine, read-out: ED50, extravasation induced by Histamine) of 37 mg/kg and a melting point of 190.7 to 191.4 °C.
